# Measured values from BindingDB's records for doi:10.1016/0960-894X(95)00058-2 (1995).
# Tests used:
# [1] = target: Squalene monooxygenase (Sus scrofa); test: The compound was tested for its inhibitory activity against pig Squalene epoxidase at pH 7.4
# [2] = target: Squalene monooxygenase (Sus scrofa); test: The compound was tested for its inhibitory activity against pig Squalene epoxidase at pH 8.8
compound,measurement,setting,value
"CC(C)=CCC/C(=C/CC/C(C)=C/CC/C=C(\C)CC/C=C(\C)CCC=C(C)C)CN [6,11,15,19-tetramethyl-2-(4-methyl-3-pentenyl)-(2Z,6E,10E,14E)-2,6,10,14,18-icosapentaen-1-amine]",IC50,[1],109 µM
same,IC50,[2],32 µM
